For data set [1], the system named is HT-29 (colon) cancer cells. Put plainly: In vitro cytotoxicity assessment (MTT), HT-29. To be noted: for IC50: Homo sapiens, HT-29, 48 h, MTT, mean of three experiments ± SD, NA: not active; for SI (selectivity index) HT-29: IC50 in WI38 normal cells / IC50 in HT-29. Type of data set: cell-based, human. An excerpt:
(§1) Four cancer cell lines were used in this study viz ovarian (A-2780), colon (HT-29), breast (MCF-7), and liver (HepG2) cancer cells. They were provided by the National Institute of Cancer, Cairo University (Cairo, Egypt). The selection of those cancer cells was encouraged by the stated anticancer activity of a number 5-Fluorouracil hybrids against the mentioned cancer cells and based on the reported cytotoxic activity of a large range of bioactive cores containing sulfonamide moiety.
(§2) Cells were seeded in 96 well plates at a density of 2 × 10^4 and incubated to allow the attachment for 24 h. Then the cells were treated at different concentrations (2.5–10 μM) with 5-FU as a positive control or the synthesized compounds for 48h. 0.1% DMSO was used as a negative control. Afterward, cells were washed using PBS and the viability of cells was evaluated utilizing in vitro toxicology assay kit, MTT Based (Stock No. TOX-1, Sigma-Aldrich, Saint Louis, Missouri, USA), per the manufacturer’s instructions. The plates were read at 570 nm. IC50 was calculated using a sigmoidal dose-response curve (GraphPad Prism version 5 for Windows (GraphPad Inc., USA)). Data are presented as the mean of the three individual experiments. The degree of selectivity of the active target compounds relative to WI38 normal cell lines is expressed as previously described. Selectivity index (SI) = IC50 of a pure compound in a normal cell line/IC50 of the same pure compound in a cancerous cell line.

The test system of data set [2] is HepG2 (liver) cancer cells. Put plainly: In vitro cytotoxicity assessment (MTT), HepG2. It is filed as cell-based, human. To be noted: for IC50: Homo sapiens, HepG2, 48 h, MTT, mean of three experiments ± SD, NA: not active; for SI (selectivity index) HepG2: IC50 in WI38 normal cells / IC50 in HepG2.
Text: as §1, §2

The subject of data set [3] is A-2780 (ovarian) cancer cells. Put plainly: In vitro cytotoxicity assessment (MTT), A-2780. Type of data set: cell-based, human. To be noted: for IC50: Homo sapiens, A2780, 48 h, MTT, mean of three experiments ± SD, NA: not active; for SI (selectivity index) A-2780: IC50 in WI38 normal cells / IC50 in A-2780.
Text: as §1, §2

For data set [4], the system named is MCF-7 (breast) cancer cells. Put plainly: In vitro cytotoxicity assessment (MTT), MCF-7. It is filed as cell-based, human. To be noted: for IC50: Homo sapiens, MCF7, 48 h, MTT, mean of three experiments ± SD, NA: not active; for SI (selectivity index) MCF-7: IC50 in WI38 normal cells / IC50 in MCF-7.
Text: as §1, §2

Data set [5] deals with WI38 normal cells. Put plainly: In vitro cytotoxicity assessment (MTT), normal cells. It is filed as cell-based. To be noted: WI-38; normal human cell line WI38, MTT. On the procedure: as §2, with “Then the cells were treated at different concentrations (2.5–10 μM) with 5-FU as a positive control or the synthesized compounds for 48h.” left out
Data set [6] concerns the target T1, CDK2/CyclinA2 (Homo sapiens, UniProt P24941).
T1 construct: purchased #79599
Put plainly: In vitro inhibitory screening of CDK2 (CDK2 Assay kit, Kinase-Glo MAX). Type of data set: biochemical. To be noted: CDK2/CyclinA2, 30 °C 45 min; mean of three experiments ± SD; read-out: CDK2 Protein Kinase (IC50 in µM). Background: Kinase-Glo reads ATP consumption through a luciferase reaction.
Procedure: To measure CDK2/CyclinA2 activity, the CDK2 Assay kit #79599 was used for screening and profiling applications, together with Kinase-Glo® MAX (Promega#V6071) as a detection reagent. […] Briefly, 25 μL of the master mixture containing 6 μL Kinase assay buffer + 1 μL ATP + 5 μL CDK substrate peptide + 13 μL distilled water were added to each well. Later, 5 µL of inhibitor buffer only or diluted compound were added to the blank or test inhibitor wells, respectively. Then, 20μL of Kinase assay buffer was added to blank wells. The reaction was started by the addition of 20 μL of CDK2/CyclinA2 enzyme to the wells of the test inhibitor. The final volume was 50 µL in all of the reactions. Incubation was at 30 °C for 45 min for all the enzymatic reactions. Finally, to each well, 50 μL of Kinase-Glo MAX reagent was added. The plate was incubated for 15 min at room temperature then, the luminescence signal was measured using a Bio Tek Synergy 2 microplate reader. Experiments were performed in triplicates.

The term IC50 denotes the concentration at which inhibition is half-maximal. By melting point is commonly meant the temperature, or range, at which the solid turns liquid. In turn, `Cc1[nH]c(=S)[nH]c(=O)c1S(=O)(=O)NNC(=O)c1ccccc1Cl` [Compound 9b, N′-(2-Chlorobenzoyl)-6-Methyl-4-Oxo-2-Thioxo-1,2,3,4-Tetrahydropyrimidine-5-Sulfono-Hydrazide] showed a melting point of 334 to 336 °C. This compound yielded a 50% inhibitory concentration (IC50) in data set [1] of 10.6 ± 1.25 µM. Further, half-maximal inhibition in data set [2] (IC50) was put at 13.3 ± 1.5 µM. In addition, it took 7.95 ± 1.75 µM to reach half-maximal inhibition in data set [3] (IC50). The same compound yielded an IC50 in data set [4] of 13.6 ± 2.65 µM.

In turn, `Cc1ccc(NS(=O)(=O)c2c(C)[nH]c(=S)[nH]c2=O)cc1` [Compound 6c, 6-Methyl-4-Oxo-2-Thioxo-N-(P-Tolyl)-1,2,3,4-Tetrahydropyrimidine-5-Sulfonamide] gave a melting point of 313 to 315 °C. For the same compound, in data set [1], inhibition was half-maximal at 5.46 ± 1.66 µM (IC50) and the “SI (selectivity index) HT-29” value came out at 15.46. Also, in data set [2], the midpoint of inhibition, the IC50, lay at 6.71 ± 0.99 µM and the “SI (selectivity index) HepG2” value is on record as 12.58. In data set [5], this compound showed a half-maximal inhibitory concentration (IC50) of 84.4 ± 1.7 µM. Also, in data set [3], the 50% inhibitory concentration (IC50) amounted to 14 ± 1.05 µM and the “SI (selectivity index) A-2780” value was 6.02. In addition, in data set [4], the midpoint of inhibition, the IC50, lay at 6.36 ± 1.2 µM and the “SI (selectivity index) MCF-7” value is 13.27.

As for `Cc1[nH]c(=S)[nH]c(=O)c1S(=O)(=O)NNC(=O)c1ccc(Cl)cc1` [Compound 9a, N′-(4-Chlorobenzoyl)-6-Methyl-4-Oxo-2-Thioxo-1,2,3,4-Tetrahydropyrimidine-5-Sulfono-Hydrazide], the melting point lay within 327 to 329 °C. Also, in data set [1], half-maximal inhibition (IC50) was put at 6.64 ± 1.19 µM. The concentration for half-maximal inhibition (IC50) in data set [2] was 11 ± 1.23 µM. This compound had an IC50 in data set [3] of 11.9 ± 3.47 µM. This compound also came in with an IC50 in data set [4] of 10.8 ± 1.53 µM.

With `O=c1[nH]cc(F)c(=O)[nH]1` [Compound 5-FU, 5-fluorouracil, reference compound], the 50% inhibitory concentration (IC50) in data set [1] turned out to be 4.69 ± 1.13 µM; in data set [2], 38.4 ± 2.4 µM; in data set [3], 3.92 ± 1 µM; in data set [4] it was 5.15 ± 1.14 µM.

In the case of `Cc1[nH]c(=S)[nH]c(=O)c1S(=O)(=O)NNC(N)=S` [Compound 8a, [(6-Methyl-4-Oxo-2-Thioxo-1,2,3,4-Tetrahydropyrimidin-5-Yl) Sulfonylamino] Thiourea], the melting point lay within 343 to 345 °C. Besides, half-maximal inhibition in data set [1] (IC50) was put at 8.02 ± 1.99 µM. In data set [2], this compound came in with an IC50 of 18 ± 1.95 µM. In data set [3], this compound displayed an IC50 of 16.8 ± 1.82 µM. The compound further returned a half-maximal inhibitory concentration (IC50) in data set [4] of 13.3 ± 3 µM.

For `Cc1[nH]c(=S)[nH]c(=O)c1S(=O)(=O)Nc1ccc(Br)cc1` [Compound 6g, N-(4-Bromophenyl)-6-Methyl-4-Oxo-2-Thioxo-1,2,3,4-Tetrahydropyrimidine-5-Sulfonamide], the melting point is 333 to 335 °C. Further, in data set [6], the concentration for half-maximal inhibition (IC50) is 0.485 ± 0.033 µM. Also, in data set [1], half-maximal inhibition (IC50) was put at 5.05 ± 0.83 µM and the “SI (selectivity index) HT-29” value came to 13.98. Also, the midpoint of inhibition in data set [2], the IC50, lay at 2.47 ± 0.51 µM. In data set [5], this compound gave an IC50 of 70.6 ± 2.14 µM. In data set [3], the 50% inhibitory concentration (IC50) worked out at 1.62 ± 0.35 µM and the “SI (selectivity index) A-2780” value turned out to be 43.58. In data set [4], the concentration for half-maximal inhibition (IC50) was determined as 7.31 ± 1.21 µM and the “SI (selectivity index) MCF-7” value was 9.65.

In turn, `COc1ccc(NS(=O)(=O)c2c(C)[nH]c(=S)[nH]c2=O)cc1` [Compound 6b, N-(4-Methoxyphenyl)-6-Methyl-4-Oxo-2-Thioxo-1,2,3,4-Tetrahydropyrimidine-5-Sulfon-Amide] showed a melting point of 320 to 322 °C. The concentration for half-maximal inhibition (IC50) in data set [6] was determined as 0.447 ± 0.031 µM. In data set [1], the IC50 was 5.1 ± 1.32 µM and the “SI (selectivity index) HT-29” value amounted to 14.05. Also, in data set [2], the midpoint of inhibition, the IC50, lay at 2.23 ± 0.55 µM and the “SI (selectivity index) HepG2” value is on record as 32.13. Moreover, the IC50 in data set [5] was found to be 71.7 ± 2 µM. In data set [3], the IC50 was 2.56 ± 0.45 µM and the “SI (selectivity index) A-2780” value was 28.00. For the same compound, in data set [4], the midpoint of inhibition, the IC50, lay at 2.29 ± 0.63 µM and the “SI (selectivity index) MCF-7” value amounted to 31.29.

As to `Cc1[nH]c(=S)[nH]c(=O)c1S(=O)(=O)NNc1ccc([N+](=O)[O-])cc1[N+](=O)[O-]` [Compound 8c, N′-(2,4-Dinitrophenyl)-6-Methyl-4-Oxo-2-Thioxo-1,2,3,4-Tetrahydropyrimidine-5-Sulfono Hydrazide], the melting point was in the range of 321 to 323 °C. This compound yielded an IC50 in data set [1] of 10.1 ± 1.54 µM. The compound further registered a 50% inhibitory concentration (IC50) in data set [2] of 14.8 ± 1.45 µM. Besides, it took 8.57 ± 1.79 µM to reach half-maximal inhibition in data set [3] (IC50). Also, the IC50 in data set [4] is 5.54 ± 1.58 µM.

`Cc1[nH]c(=S)[nH]c(=O)c1S(=O)(=O)Nc1cccc(C(=O)C=Cc2ccc(Cl)cc2)c1` [Compound 7a, N-(3-(3-(4-Chlorophenyl)acryloyl)phenyl)-6-Methyl-4-Oxo-2-Thioxo-1,2,3,4-Tetrahydro Pyrimidine-5-Sulfonamide]: the melting point was 315 to 317 °C. For the same compound, the IC50 in data set [6] was 6.41 ± 0.377 µM. In data set [1], the half-maximal inhibitory concentration (IC50) was found to be 4.2 ± 0.88 µM and the “SI (selectivity index) HT-29” value turned out to be 19.78. Further, in data set [2], it took 10.9 ± 1.72 µM to reach half-maximal inhibition (IC50) and the “SI (selectivity index) HepG2” value was 7.61. The compound further yielded a concentration for half-maximal inhibition (IC50) in data set [5] of 83.1 ± 2 µM. Moreover, in data set [3], inhibition was half-maximal at 12.5 ± 2.1 µM (IC50) and the “SI (selectivity index) A-2780” value is reported as 6.66. In addition, in data set [4], the IC50 stood at 6.9 ± 1.33 µM and the “SI (selectivity index) MCF-7” value is recorded as 12.04.

`Cc1[nH]c(=S)[nH]c(=O)c1S(=O)(=O)Nc1ccccc1` [Compound 6a, 6-Methyl-4-Oxo-N-Phenyl-2-Thioxo-1,2,3,4-Tetrahydropyrimidine-5-Sulfonamide] yielded a melting point of 316 to 318 °C. In data set [1], this compound came in with a half-maximal inhibitory concentration (IC50) of 11.3 ± 2.08 µM. For the same compound, half-maximal inhibition in data set [2] (IC50) required 15.6 ± 1.52 µM. The compound further had a half-maximal inhibitory concentration (IC50) in data set [3] of 17.7 ± 2.18 µM. This compound showed an IC50 in data set [4] of 16.8 ± 2.11 µM.

Consider `Cc1[nH]c(=S)[nH]c(=O)c1S(=O)(=O)Nc1cccc(C(=O)C=Cc2ccc([N+](=O)[O-])cc2)c1` [Compound 7b, 6-Methyl-N-(3-(3-(4-Nitrophenyl)acryloyl)phenyl)-4-Oxo-2-Thioxo-1,2,3,4-Tetrahydropyrimidine-5-Sulfonamide], for which the melting point is 318 to 320 °C. Besides, the IC50 in data set [6] worked out at 0.81 ± 0.026 µM. In data set [1], the IC50 is 2.84 ± 0.78 µM and the “SI (selectivity index) HT-29” value came out at 28.14. Besides, in data set [2], the IC50 came to 12.4 ± 1.82 µM and the “SI (selectivity index) HepG2” value is reported as 6.43. In data set [5], inhibition was half-maximal at 79.9 ± 2.56 µM (IC50). In data set [3], the IC50 came out at 11.1 ± 1.41 µM and the “SI (selectivity index) A-2780” value came to 7.22. Also, in data set [4], the half-inhibitory concentration (IC50) was 6.11 ± 0.5 µM and the “SI (selectivity index) MCF-7” value came to 13.08.

For `Cc1[nH]c(=S)[nH]c(=O)c1S(=O)(=O)NNc1ccccc1` [Compound 8b, 6-Methyl-4-Oxo-N′-Phenyl-2-Thioxo-1,2,3,4-Tetrahydropyrimidine-5-Sulfonohydrazide], the 50% inhibitory concentration (IC50) in data set [1] was 8.16 ± 2.07 µM; in data set [2], 13.1 ± 2.04 µM; in data set [3] it was 16.4 ± 1.55 µM; in data set [4], 9.89 ± 1.8 µM.

As to `Cc1[nH]c(=S)[nH]c(=O)c1S(=O)(=O)Nc1ccc([N+](=O)[O-])cc1` [Compound 6f, 6-Methyl-N-(4-Nitrophenyl)-4-Oxo-2-Thioxo-1,2,3,4-Tetrahydropyrimidine-5-Sulfonamide], the IC50 was 0.605 ± 0.023 µM in data set [6]; 6.4 ± 1.24 µM in data set [1]; 6.1 ± 0.48 µM in data set [2]; 65.7 ± 2.28 µM in data set [5]; 10.2 ± 0.97 µM in data set [3]; 2.34 ± 0.61 µM in data set [4].

On to `Cc1[nH]c(=S)[nH]c(=O)c1S(=O)(=O)NNC(=O)c1ccc(Br)cc1` [Compound 9c, N′-(4-Bromobenzoyl)-6-Methyl-4-Oxo-2-Thioxo-1,2,3,4-Tetrahydropyrimidine-5-Sulfono-Hydrazide], for which the melting point fell in the range of 339 to 341 °C. Further, in data set [1], the midpoint of inhibition, the IC50, lay at 6.99 ± 1.35 µM. This compound came in with an IC50 in data set [2] of 9.44 ± 1.03 µM. In data set [3], this compound registered a 50% inhibitory concentration (IC50) of 8.16 ± 2.07 µM. In data set [4], this compound registered a 50% inhibitory concentration (IC50) of 11.9 ± 2 µM.

The values above are taken from article PMC8584424, “Synthesis of Novel 2-Thiouracil-5-Sulfonamide Derivatives as Potent Inducers of Cell Cycle Arrest and CDK2A Inhibition Supported by Molecular Docking” (International Journal of Molecular Sciences, 2021).
